Measured values: publication PMC7093416, “Selective USP7 inhibition elicits cancer cell killing through a p53-dependent mechanism” (Scientific Reports, 2020)

Tested on: panel of 484 cancer cell lines
Experiment: PRISM cancer cell line profiling, 5 days
Assay type: cell-based
Parameters: AUC: unit not given beside the values
Method: Cancer cell line profiling was performed using the Broad’s PRISM platform. Cell treatment and data analysis were performed as described in Yu et al[42]. Raw Luminex signal was converted to AUC values for each cell line as described. The resulting AUC profile for each compound was modeled against DepMap using the limma package in R[71]. Because hotspot mutation analysis was performed against DepMap, TP53 annotations in Fig. 6c,d are directly from DepMap.

SMILES: COc1ccc(C2=N[C@@H](c3ccc(Cl)cc3)[C@@H](c3ccc(Cl)cc3)N2C(=O)N2CCNC(=O)C2)c(OC(C)C)c1 [Nutlin-3A]
- AUC (NCIH2170_LUNG): 1.154
- AUC (NCIH2172_LUNG): 1.147
- AUC (NCIH2228_LUNG): 1.087
- AUC (NCIH2347_LUNG): 0.9531
- AUC (NCIH2444_LUNG): 1.324
- AUC (NCIH2452_PLEURA): 1.028
- AUC (NCIN87_STOMACH): 1.465
- AUC (NUGC3_STOMACH): 1.1161
- AUC (NUGC4_STOMACH): 0.888
- AUC (OAW42_OVARY): 1.011
- AUC (OC314_OVARY): 0.964
- AUC (OC316_OVARY): 0.9756
- AUC (OE19_OESOPHAGUS): 1.199
- AUC (OE21_OESOPHAGUS): 1.087
- AUC (OE33_OESOPHAGUS): 0.9763
- AUC (ONCODG1_OVARY): 1.1325
- AUC (ONS76_CENTRAL_NERVOUS_SYSTEM): 0.8865
- AUC (OSRC2_KIDNEY): 0.8477
- AUC (OUMS23_LARGE_INTESTINE): 1.065
- AUC (OV56_OVARY): 1.192
- AUC (OVCAR8_OVARY): 1.207
- AUC (OVISE_OVARY): 0.8578
- AUC (OVK18_OVARY): 0.8595
- AUC (OVSAHO_OVARY): 1.156
- AUC (OVTOKO_OVARY): 0.9039
- AUC (PANC1_PANCREAS): 1.1
- AUC (PANC0203_PANCREAS): 1.166
- AUC (PANC0327_PANCREAS): 1.409
- AUC (PANC0403_PANCREAS): 1.138
- AUC (PANC0813_PANCREAS): 1.0676
- AUC (PANC1005_PANCREAS): 1.216
- AUC (PATU8902_PANCREAS): 1.154
- AUC (PATU8988S_PANCREAS): 1.234
- AUC (PATU8988T_PANCREAS): 1.162
- AUC (PC3_PROSTATE): 0.976
- AUC (PC14_LUNG): 1.1376
- AUC (PECAPJ15_UPPER_AERODIGESTIVE_TRACT): 1.095
- AUC (PECAPJ41CLONED2_UPPER_AERODIGESTIVE_TRACT): 1.019
- AUC (PECAPJ49_UPPER_AERODIGESTIVE_TRACT): 1.2004
- AUC (PK1_PANCREAS): 1.122
- AUC (PK45H_PANCREAS): 1.1189
- AUC (PK59_PANCREAS): 1.0633
- AUC (PLCPRF5_LIVER): 1.234
- AUC (PSN1_PANCREAS): 1.126
- AUC (QGP1_PANCREAS): 1.087
- AUC (RCC10RGB_KIDNEY): 0.8832
- AUC (RCM1_LARGE_INTESTINE): 1.202
- AUC (RD_SOFT_TISSUE): 1.042
- AUC (RERFLCAD1_LUNG): 1.147
- AUC (RERFLCAD2_LUNG): 1.183
- AUC (RERFLCAI_LUNG): 1.0697
- AUC (RERFLCKJ_LUNG): 1.11
- AUC (RERFLCMS_LUNG): 1.091
- AUC (RH30_SOFT_TISSUE): 1.041
- AUC (RKN_SOFT_TISSUE): 1.06
- AUC (RKO_LARGE_INTESTINE): 0.9236
- AUC (RL952_ENDOMETRIUM): 0.9689
- AUC (RMGI_OVARY): 0.9145
- AUC (RMUGS_OVARY): 1.151
- AUC (RT4_URINARY_TRACT): 1.199
- AUC (RT112_URINARY_TRACT): 0.9358
- AUC (RVH421_SKIN): 1.087
- AUC (S117_SOFT_TISSUE): 1.193
- AUC (SBC5_LUNG): 1.066
- AUC (SCABER_URINARY_TRACT): 1.156
- AUC (SCC25_UPPER_AERODIGESTIVE_TRACT): 1.213
- AUC (SF126_CENTRAL_NERVOUS_SYSTEM): 0.9298
- AUC (SF295_CENTRAL_NERVOUS_SYSTEM): 1.194
- AUC (SF539_CENTRAL_NERVOUS_SYSTEM): 1.114
- AUC (SH4_SKIN): 0.9981
- AUC (SH10TC_STOMACH): 1.171
- AUC (SIMA_AUTONOMIC_GANGLIA): 1.067
- AUC (SJSA1_BONE): 0.8737
- AUC (SKES1_BONE): 1.109
- AUC (SKHEP1_LIVER): 0.8252
- AUC (SKLU1_LUNG): 1.249
- AUC (SKMEL2_SKIN): 1.0683
- AUC (SKMEL3_SKIN): 1.137
- AUC (SKMEL5_SKIN): 0.8995
- AUC (SKMEL24_SKIN): 0.8575
- AUC (SKMEL30_SKIN): 1.211
- AUC (SKMES1_LUNG): 0.9911
- AUC (SKNAS_AUTONOMIC_GANGLIA): 1.242
- AUC (SKNBE2_AUTONOMIC_GANGLIA): 1.137
- AUC (SKOV3_OVARY): 1.101
- AUC (SKUT1_SOFT_TISSUE): 1.057
- AUC (SNB75_CENTRAL_NERVOUS_SYSTEM): 1.2
- AUC (SNGM_ENDOMETRIUM): 1.197
- AUC (SNU46_UPPER_AERODIGESTIVE_TRACT): 1.125
- AUC (SNU61_LARGE_INTESTINE): 1.275
- AUC (SNU81_LARGE_INTESTINE): 1.088
- AUC (SNU213_PANCREAS): 1.089
- AUC (SNU245_BILIARY_TRACT): 1.207
- AUC (SNU308_BILIARY_TRACT): 1.147
- AUC (SNU398_LIVER): 1.135
- AUC (SNU407_LARGE_INTESTINE): 0.9535
- AUC (SNU410_PANCREAS): 1.257
- AUC (SNU423_LIVER): 0.9946
- AUC (SNU449_LIVER): 1.202
- AUC (SNU466_CENTRAL_NERVOUS_SYSTEM): 1.108
- AUC (SNU601_STOMACH): 1.158
- AUC (SNU668_STOMACH): 0.9614
- AUC (SNU685_ENDOMETRIUM): 1.162
- AUC (SNU719_STOMACH): 1.114
- AUC (SNU738_CENTRAL_NERVOUS_SYSTEM): 1.181
- AUC (SNU761_LIVER): 1.163
- AUC (SNU840_OVARY): 0.883
- AUC (SNU869_BILIARY_TRACT): 1.149
- AUC (SNU886_LIVER): 1.1718
- AUC (SNU1041_UPPER_AERODIGESTIVE_TRACT): 1.098
- AUC (SNU1066_UPPER_AERODIGESTIVE_TRACT): 1.273
- AUC (SNU1076_UPPER_AERODIGESTIVE_TRACT): 1.222
- AUC (SNU1077_ENDOMETRIUM): 1.256
- AUC (SNU1079_BILIARY_TRACT): 1.079
- AUC (SNU1105_CENTRAL_NERVOUS_SYSTEM): 1.1033
- AUC (SNU1196_BILIARY_TRACT): 1.008
- AUC (SNU1214_UPPER_AERODIGESTIVE_TRACT): 1.185
- AUC (SNUC2A_LARGE_INTESTINE): 1.021
- AUC (SNUC4_LARGE_INTESTINE): 0.9159
- AUC (SNUC5_LARGE_INTESTINE): 1.066
- AUC (SQ1_LUNG): 1.1
- AUC (SUIT2_PANCREAS): 1.124
- AUC (SW48_LARGE_INTESTINE): 0.6832
- AUC (SW480_LARGE_INTESTINE): 1.185
- AUC (SW579_THYROID): 1.033
- AUC (SW620_LARGE_INTESTINE): 1.193
- AUC (SW780_URINARY_TRACT): 0.8319
- AUC (SW837_LARGE_INTESTINE): 1.121
- AUC (SW900_LUNG): 1.197
- AUC (SW948_LARGE_INTESTINE): 1.0613
- AUC (SW1088_CENTRAL_NERVOUS_SYSTEM): 1.216
- AUC (SW1271_LUNG): 0.9516
- AUC (SW1353_BONE): 1.036
- AUC (SW1573_LUNG): 0.9119
- AUC (SW1710_URINARY_TRACT): 1.113
- AUC (SW1990_PANCREAS): 1.0624
- AUC (T3M10_LUNG): 1.167
- AUC (T24_URINARY_TRACT): 1.096
- AUC (T47D_BREAST): 1.041
- AUC (T98G_CENTRAL_NERVOUS_SYSTEM): 0.9597
- AUC (TCCPAN2_PANCREAS): 1.066
- AUC (TCCSUP_URINARY_TRACT): 1.257
- AUC (TE1_OESOPHAGUS): 1.118
- AUC (TE4_OESOPHAGUS): 1.169
- AUC (TE5_OESOPHAGUS): 1.116
- AUC (TE6_OESOPHAGUS): 1.1488
- AUC (TE8_OESOPHAGUS): 1.279
- AUC (TE9_OESOPHAGUS): 0.9402
- AUC (TE10_OESOPHAGUS): 1.052
- AUC (TE11_OESOPHAGUS): 1.135
- AUC (TEN_ENDOMETRIUM): 1.229
- AUC (TM31_CENTRAL_NERVOUS_SYSTEM): 1.145
- AUC (TM87_SOFT_TISSUE): 0.8528
- AUC (TOV21G_OVARY): 0.8573
- AUC (TOV112D_OVARY): 1.15
- mean diff. between TP53 functional WT and functional mutant populations (AUC) (TP53 annotation by functional scores of Giacomelli et al.): 0.165 ± 0.011
- AUC (TT2609C02_THYROID): 1.113
- AUC (TT_OESOPHAGUS): 1.115
- AUC (TT_THYROID): 0.8544
- AUC (TUHR4TKB_KIDNEY): 0.8234
- AUC (U2OS_BONE): 0.8753
- AUC (U118MG_CENTRAL_NERVOUS_SYSTEM): 1.124
- AUC (U251MG_CENTRAL_NERVOUS_SYSTEM): 1.1855
- AUC (UACC62_SKIN): 0.841
- AUC (UACC257_SKIN): 0.9099
- AUC (UBLC1_URINARY_TRACT): 1.2
- AUC (UMUC1_URINARY_TRACT): 1.103
- AUC (UO31_KIDNEY): 0.9228
- AUC (VMCUB1_URINARY_TRACT): 1.108
- AUC (VMRCRCW_KIDNEY): 1.098
- AUC (VMRCRCZ_KIDNEY): 1.139
- AUC (WM88_SKIN): 0.8161
- AUC (WM793_SKIN): 0.8713
- AUC (WM983B_SKIN): 0.9957
- AUC (WM1799_SKIN): 0.8817
- AUC (WM2664_SKIN): 0.8653
- AUC (YAPC_PANCREAS): 1.201
- AUC (YD8_UPPER_AERODIGESTIVE_TRACT): 1.226
- AUC (YD10B_UPPER_AERODIGESTIVE_TRACT): 1.17
- AUC (YD15_SALIVARY_GLAND): 1.2
- AUC (YD38_UPPER_AERODIGESTIVE_TRACT): 1.227
- AUC (YH13_CENTRAL_NERVOUS_SYSTEM): 1.109
- AUC (YKG1_CENTRAL_NERVOUS_SYSTEM): 1.146
- AUC (ZR751_BREAST): 1.121
